Measurements taken from patent US20120178147A1, “MICROBIAL CULTURES AND METHODS FOR ANAEROBIC BIOREMEDIATION” (priority 2009, published 2012).
Where two headings read alike, the source gives them in different places.

Columns and labels:
E. coli = conditions: cited from earlier work
aquatic organisms = conditions: according to PBT Profiler; cited from earlier work
MRSA = conditions: cited from earlier work
[1] = system: algae, aquatic invertebrates and fish; conditions: cited from earlier work
general bacteria = assay: qRT-PCR of general bacteria 16S rRNA genes in BDI cultures; format: cell-based; conditions: BDI with 1.5 μM TCC or 35 μM TCS
Method: Quantitative real-time PCR (qRT-PCR) was performed for enumeration of general 16S rRNA genes and Dehalococcoides 16S rRNA genes in culture DehaloR̂2 and Bio-Dechlor INOCULUM. The primers used for general 16S rRNA genes were Bac1055F (5′-ATG GYT GTC GTC ACCT-3′) and Bac1392R (5′-ACG GGC GGT GTG TAC-3′) (Ritalahti et al., 2006), and the probe was Bac16sTaq (FAM-CAA CGA GCG CAA CCC/3-BHQ-1/). The final volume of PCR reactions was 10 μL, and the final concentration of each chemical in a single reaction tube was: 1× RealMasterMix (Fisher Scientific, Pittsburgh, Pa.), 300 nM Probe, 300 nM each Primer, and 130 nM DNA samples. The PCR conditions were as follows: 2 min at 95° C. followed by 40 cycles of 10 s at 95° C., 20 s at 56° C. and 20 s at 68° C. The primers used for Dehalococcoides 16S rRNA genes were Dhc1200F (5′-CTGGAGCTAATCCCCAAAGCT-3′) and Dhc1271R (5′-CAA CTT CAT GCA GGC GGG-3′), and the probe was Dhc1240Pr (FAM-TCCTCAGTTCGGATTGCAGGC TGAA/3-BHQ-1) (He et al., 2003b). The final volume of PCR reactions was 10 μL, and the final concentration of each chemical in a single reaction tube was: 1× RealMasterMix (Fisher Scientific, Pittsburgh, Pa.), 200 nM Probe, 700 nM each Primer, and 130 nM DNA samples. The PCR conditions were as follows: 2 min at 95° C. followed by 40 cycles of 15 s at 95° C., 20 s at 58° C. and 20 s at 68° C.
Quantitative Real time PCR (qRT-PCR) was carried out in a spectrofluorimetric thermal cycler (Master cycler, epgradient S, Eppendorf). Calibration curves were performed in triplicate and a linear range of 6 orders of magnitude was obtained. Plasmids containing Dehalococcoides strain BAV1 16S rRNA genes were used as standards to construct general 16S rRNA genes and Dehalococcoides 16S rRNA genes calibration curves. The slopes of the calibration curves for general 16S rRNA genes and Dehalococcoides 16S rRNA genes were −3.46 and −3.94, and the Y intercepts were 38 and 44.2, respectively.
DNA Extraction and Quantitative Real-Time PCR. The BDI cultures and DehaloR^2 cultures were shaken vigorously first and then 10 ml of the mixed liquid was removed with a sterile syringe and dispensed into 10 1.5 ml micro centrifuge tubes. These micro centrifuge tubes were then centrifuged at 13,000 rpm for 15 min in order to make a pellet, and the pellet was used for DNA extraction. Qiagen DNeasy Blood & Tissue Kit with modifications to enhance lysis was used for DNA isolation from cultures. DNA samples were stored at −20° C.
Quantitative real-time PCR (qRT-PCR) was performed for enumeration of general 16S rRNA genes and Dehalococcoides 16S rRNA genes in BDI culture without TCC&TCS, BDI culture with 1.5 μM TCC, BDI culture with 35 μM TCS, D DehaloR̂2 culture without TCC&TCS, DehaloR^2 culture with 1.5 μM TCC and DehaloR̂2^2 culture with 35 μM TCS. […]

[2] = system: Gram-positive bacteria, such as staphylococcus; conditions: cited from earlier work
P. aeruginosa = conditions: cited from earlier work
[3] = cited from earlier work
[4] = system: Gram-negative species and fungi; conditions: cited from earlier work
[5] = continuous-flow activated sludge, 0.5 to 2 mg/L TCS (Stasinakis et al., 2007); cited from earlier work
North American bullfrog = conditions: alters thyroid hormone-mediated postembryonic development; cited from earlier work
Scenedesmus subspicatus = conditions: cited from earlier work
Rainbow trout = conditions: in vivo; cited from earlier work

Structure (SMILES)	activity in MIC experiments (E. coli)	concentration toxic to aquatic organisms (aquatic organisms) [ng/mL]	activity in MIC experiments (MRSA)	Predicted No Effect Concentration (PNEC) [1] [µg/L]	ratio of PEC/PNEC [1]	General bacteria 16S rRNA gene copies, day 27 (general bacteria)	General bacteria 16S rRNA gene copies, initial (general bacteria)	concentration that effectively inhibits Gram-positive bacteria [2] [µg/L]	activity in MIC experiments (P. aeruginosa)	biodegradation ([3]; TCC 20 μg/L) [%]	biodegradation ([3]; TCC 2000 μg/L) [%]	biodegradation of the dichloroaniline ring ([3]; bench scale CFAS system) [%]	biodegradation of the p-chloroaniline ring ([3]; bench scale CFAS system) [%]	concentration needed to inhibit Gram-negative species and fungi [4] [mg/L]	removed by biodegradation and sorption [5] [%]	concentration acting as an endocrine disruptor (North American bullfrog) [ng/mL]	96-h effective concentration (EC50) for growth (Scenedesmus subspicatus) [µg/mL]	96-h no-observed effect concentration (NOEC) (Scenedesmus subspicatus) [µg/L]	NOEC (Rainbow trout) [µg/L]	median EC50 (Rainbow trout) [µg/mL]
O=C(Nc1ccc(Cl)cc1)Nc1ccc(Cl)c(Cl)c1 [TCC, 3-(4-chlorophenyl)-1-(3,4-dichlorphenyl) urea]	not	90000	showed activity	0.146	0.009 to 0.34	1.4×10^8 gene copies/ml	7.2×10^7 gene copies/ml	100 to 200	not	60	70	25.9	56	1000						
Oc1cc(Cl)ccc1Oc1ccc(Cl)cc1Cl [TCS, 5-chloro-2-[2,4-dichloro-phenoxy]-phenol]						3.3×10^8 gene copies/ml	1.0×10^8 gene copies/ml								90	0.15 ± 0.03	0.0014	0.69	34	0.35
